Test results published in PMC5094189 (Journal of the American Chemical Society, 2016).

Experiments:
[1] = tested on: U937 human histiocytic lymphoma cells; conditions: cited from earlier work
[2] = tested on: TNFα secretion from U937 cells; experiment: TNFα secretion from U937 cells; type: cell-based, human; conditions: treatment for 60 hours
[3] = tested on: U937 human histiocytic lymphoma cells; conditions: cited from earlier work; remark: listed apart in the source
[4] = tested on: Toledo cells; experiment: Toledo cell growth assay; type: cell-based

SMILES	behavior in U937 promyelocytic leukemia cells [1]	TNFα secretion [2]	effect on attachment of U937 cells [3]	growth inhibition of Toledo cells [4]	effect on proliferation of U937 cells [1]
COC(=O)/C=C1\C[C@H]2C[C@]3(O)O[C@H](C[C@@H](O)CC(=O)O[C@@H](C)[C@H](O)C[C@@H]4C[C@@H]5CC(=O)O[C@]5(O4)C(=O)C(C)(C)/C=C/[C@@H](C1)O2)C[C@H](OC(=O)C(C)(C)C)C3(C)C [Neristatin 1]	bryostatin 1-like behavior	–	–	–	–
CCC/C=C/C=C/C(=O)O[C@H]1/C(=C/C(=O)OC)C[C@H]2C[C@H]([C@@H](C)O)OC(=O)C[C@H](O)C[C@@H]3C[C@H](OC(C)=O)C(C)(C)[C@](O)(C[C@@H]4C/C(=C/C(=O)OC)C[C@H](/C=C/C(C)(C)[C@]1(O)O2)O4)O3 [bryostatin 1]	–	little effect	little response	induce antiproliferative responses	little response
CCCCCCCCCCCCCC(=O)O[C@@H]1[C@@H](C)[C@@]2(O)[C@@H](C=C(CO)C[C@]3(O)C(=O)C(C)=C[C@@H]23)[C@@H]2C(C)(C)[C@]12OC(C)=O [PMA, phorbol 12-myristate 13-acetate]	–	induces secretion in a dose-dependent manner	promotes attachment	induce antiproliferative responses	inhibits the proliferation
